Data on 5 compounds can be found in patent US20160214918A1, “COMPOSITION FOR TREATING METABOLIC SYNDROME AND A PREPARATION METHOD THEREOF” (Kaohsiung Medical University, priority 2015, published 2016).

In one series the test system is mature fat cells. Kind of series: glucose consumption rate of fat cells in culture medium. The note with it: 24 hours, control group about 20%. Format: cell-based. The text has this:
Please refer to FIGS. 6A-6C. FIGS. 6A-6C show the results of the activity of the glucose consumption rate of fat cells in the culture medium. As shown in FIGS. 6A-6C, various compounds containing halogens, such as chlorine, bromine and iodine, can increase the glucose consumption rate of fat cells. Many of the deuterium-containing compounds are new ones in this example. […] Symbol ‘Con’ denotes the Control Group, Symbol ‘5’ denotes a 2Br2H compound, Symbol ‘6’ denotes a 2I2H compound, Symbol ‘Met’ denotes a metformin, Symbol ‘AI’ denotes an AMPK inhibitor, Symbol ‘L’ denotes a low-dose usage of 15 ug/mL, and Symbol ‘H’ denotes a high-dose usage of 30 ug/mL
The activity of the glucose consumption rate of fat cells is taken from the following: A testing drug, 2,3-dideutero-1-(2-iodophenyl)-3-(4-methoxyphenyl)propan-1-one with the concentration 30 ug/mL, was cultured with mature fat cells for 24 hours. It was then tested to determine the change of the glucose concentration in the culture medium.
24 hours after the replacement of a culture media, the glucose consumption rate of the control group was about 20%. After insulin was added, the glucose consumption rate of the cells in the control group upgrades to 30%. With the commercial drug, Pioglitazone of 30 ug/mL, the glucose consumption rate of the cells in the corresponding group increased to 40%.

A further series concerns fat cells. Kind of series: cellular toxicity in fat cells. The class given is cell-based. The note with it: FIG. 6A, drug 30 ug/mL.

As to `CCc1ccc(CCOc2ccc(CC3SC(=O)NC3=O)cc2)nc1` (centres unmarked) [Pioglitazone, reference compound], the “glucose consumption rate of the cells” value in the series with mature fat cells (mature fat cells, drug 30 ug/mL) worked out at 40%. In the case of `COc1ccc(/C=C/C(=O)c2ccccc2I)cc1` [2I2H, (E)-1-(2-iodophenyl)-3-(4-methoxyphenyl)prop-2-en-1-one], the cellular toxicity result in the series with fat cells is given as “no visible cellular toxicity”. The same measure, in the same setting: next, `[2H]C(C(=O)c1ccccc1I)C([2H])c1ccc(OC)cc1` (centres unmarked) [2I1D, 2,3-dideutero-1-(2-iodophenyl)-3-(4-methoxyphenyl)propan-1-one]: “no visible cellular toxicity”. For the compound “insulin: insulin added to fat cells as a positive control”, the “glucose consumption rate of the cells” value with mature fat cells (fat cells, after insulin was added) worked out at 30%.

Consider `COc1ccc(C#CC(=O)c2ccccc2I)cc1` [2I3, 1-(2-iodophenyl)-3-(4-methoxyphenyl)prop-2-yn-1-one], for which the cellular toxicity entry in the series with fat cells is listed as “significant cellular toxicity”.
